This assay relates to Raji B cells. In words: Apoptosis assay in Raji B cells treated with PS-341. It is filed as cell-based. The following applies: Raji B cells treated with PS-341 (FIG. 11B); effect can be rescued by LRBA knockdown. The method, then:
FIGS. 2A, 2B, 2C-1, 2C-2, 2D, and 2E. LRBA interacts with NFkB and regulates cell survival. FIG. 2A: LRBA was stably knocked down in Raji cells by the short hairpin (sh) RNA technique in Raji B cells. NFkB activity was measured by an NFkB luciferase reporter. FIG. 2B: The phospho-NFkB (pS529) levels were detected by Phosflow Kit. FIGS. 2C-1 and 2C-2: TNFα (FIG. 2C-1) and IL10 (FIG. 2C-2) proteins levels were measured by the human Th1/Th2 cytokine bead-array kit. FIG. 2D: Apoptosis assay. Raji B cells were treated with various stress stimuli including proteasome inhibitors, serum starvation and bacterial infection. Apoptosis was detected by Annexin V-PE and 7-AAD. FIG. 2E: LRBA (−/−) ES cell clones were obtained by culturing LRBA (+/−) ES cells with 1 mg/ml G418 for ˜two weeks. Equal number of ES cells was plated into each well of a 96-well plate. The average cell numbers were counted from three wells at each time point.
FIGS. 11A-11E. LRBA interacts with important genes in regulating apoptosis and proliferation. […] FIG. 11A: NFkB activity was measured by an NFkB luciferase reporter. The Phosphorylated (P−) NFkB (pS529) levels were detected by Phosflow Kit. […] The average cell numbers were counted from three wells at each time point. […] Cell lysates from WT or LRBA KD stable Raji cells were analyzed by Western blot. Protein levels were quantified with Quantity One software. […]

`CC(C)C[C@H](NC(=O)[C@H](Cc1ccccc1)NC(=O)c1cnccn1)B(O)O` [PS-341]: the apoptosis entry is recorded as “promotes apoptosis”.
